{"source": "patent US6403791B1", "about": "“Heterocyclic compounds and their therapeutic use” (Darwin Discovery, Ltd., priority 2000, dated 2002)", "assay": "Oral pharmacokinetics (Cmax) in guinea pigs", "conditions": "guinea pig, in vivo, dosed orally at 3 mg/kg to guinea pigs", "data": [{"smiles": "CCc1nc2c(OC(F)F)ccc(C(=O)Nc3c(C)noc3C)c2o1", "note": "[Example 1, 4-Difluoromethoxy-2-ethylbenzooxazole-7-carboxylic acid (3,5-dimethylisoxazole-4-yl)-amide]", "values": [{"measurement": "Cmax", "value": 4370, "unit": "ng/mL"}]}]}
